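Cells were grown in 96-well plates and exposed to each compound for 48 hours at five concentrations; endpoints were interpolated linearly between bracketing concentrations, or set to the highest concentration if not reached. Here, GI50 denotes the concentration required for 50% inhibition of growth.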 Calls of active or inactive are those of the source. Rule as the data show it: active = GI50 up to about 1.1 µM and inactive = higher.
Experiments:
Assay in all cases: NCI-60 cell line screen, 48 h
[1] = test system: KM-20L2
[2] = test system: DLD-1
[3] = test system: LXFL 529
[4] = test system: RXF 631
[5] = test system: M19-MEL
[6] = test system: SNB-78
[7] = test system: XF498
[8] = test system: DMS-273
[9] = test system: DMS-114

| SMILES | GI50 [1] | GI50 [2] | GI50 [3] | GI50 [4] | GI50 [5] | GI50 [6] | GI50 [7] | GI50 [8] | GI50 [9] |
| --- | --- | --- | --- | --- | --- | --- | --- | --- | --- |
| Cn1c(O)c(C(=O)NC2CCCCC2)c(=O)n(C)c1=S | 8.04 µM (inactive) | 4.93 µM (inactive) | 2.78 µM (inactive) | 4.91 µM (inactive) |  |  |  |  |  |
| COCN1COCN/C1=N\C#N | > 100 µM (inactive) | > 100 µM (inactive) | > 100 µM (inactive) | > 100 µM (inactive) | > 100 µM (inactive) | > 100 µM (inactive) | > 100 µM (inactive) | 98.2 µM (inactive) | > 100 µM (inactive) |
| COC(=O)C(=O)Cc1nc2ccccc2s1 | > 100 µM (inactive) | > 100 µM (inactive) | > 100 µM (inactive) |  | > 100 µM (inactive) | > 100 µM (inactive) |  | > 100 µM (inactive) | > 100 µM (inactive) |
| Cc1c(/C=N/NS(=O)(=O)c2ccccc2)no[n+]1[O-] | > 100 µM (inactive) |  | > 100 µM (inactive) |  |  |  |  |  | > 100 µM (inactive) |
| COC(=O)C(=O)C(C(=O)C=C(C)C)C(=O)C(=O)Nc1cccc(C(C)=O)c1 (stereo not drawn) | > 100 µM (inactive) | > 100 µM (inactive) | > 100 µM (inactive) | > 100 µM (inactive) | > 100 µM (inactive) | > 100 µM (inactive) | > 100 µM (inactive) | > 100 µM (inactive) | > 100 µM (inactive) |
| CCCCCCCCC/C=C/C=C/C(=O)NCC(=O)NC1C(O)C(O)C(Nc2ncnc3[nH]cnc23)OC1C(O)CO (stereo not drawn) | 0.001 µM (active) | 0.0655 µM (active) | 0.00838 µM (active) |  | 0.001 µM (active) |  |  | 0.001 µM (active) | 0.0551 µM (active) |
| CC[C@]1(O)C[C@H]2CN(CCc3c([nH]c4ccccc34)[C@@](C(=O)OC)(c3cc4c(cc3OC)N(C)[C@H]3[C@@](O)(C(=O)OC)[C@H](OC(C)=O)[C@]5(CC)C=CCN6CC[C@]43[C@@H]65)C2)C1 | 0.000397 µM (active) | 0.00433 µM (active) | 0.00045 µM (active) | 0.00262 µM (active) |  | 0.00173 µM (active) | 0.000402 µM (active) | 0.000375 µM (active) |  |
| CC(=O)OC[C@]1(C)CCCC2(C)C1CCC1C=C(C)[C@H]3CCC12C3 (stereo partly drawn) | 42.9 µM (inactive) | 99.3 µM (inactive) | > 100 µM (inactive) |  | 63.4 µM (inactive) | 45.9 µM (inactive) |  |  |  |
| CCNc1nnc(CSc2nc(-c3ccccc3)c(-c3ccccc3)[nH]2)s1 | 27.8 µM (inactive) | 22.7 µM (inactive) | 24.7 µM (inactive) |  | 16.3 µM (inactive) | 30.8 µM (inactive) |  | 22.2 µM (inactive) | 20.7 µM (inactive) |
| N#C/N=C(/N)NCc1ccccc1 | > 100 µM (inactive) | > 100 µM (inactive) | > 100 µM (inactive) |  | > 100 µM (inactive) |  |  | > 100 µM (inactive) | > 100 µM (inactive) |
| CC(=O)OC1C/C(C)=C/[C@H](O)CC(C)/C=C/[C@@]2(C)CCC(C(C)(C)O)C12 (stereo partly drawn) | > 100 µM (inactive) | > 100 µM (inactive) | > 100 µM (inactive) | > 100 µM (inactive) | > 100 µM (inactive) | > 100 µM (inactive) | > 100 µM (inactive) | > 100 µM (inactive) | > 100 µM (inactive) |
| CCOc1ccccc1NC(=O)CCc1nnc2s/c(=C\CCc3ccccc3)c(=O)n12 | > 100 µM (inactive) | > 100 µM (inactive) | > 100 µM (inactive) |  | > 100 µM (inactive) | > 100 µM (inactive) | > 100 µM (inactive) | > 100 µM (inactive) | > 100 µM (inactive) |
| O=C1C=CC(S(=O)(=O)C2=C/C(=C/Nc3ccc(Cl)cc3)C(=O)C=C2)=C/C1=C/Nc1ccc(Cl)cc1 | > 100 µM (inactive) | > 100 µM (inactive) | > 100 µM (inactive) | > 100 µM (inactive) | > 100 µM (inactive) |  |  | > 100 µM (inactive) | > 100 µM (inactive) |
| Nc1nc(-c2ccccc2)c(Cl)c(-c2cc(Cl)ccc2O)n1 | 65.3 µM (inactive) | 26.3 µM (inactive) | 25.9 µM (inactive) | 97.7 µM (inactive) | > 72.1 µM (inactive) | 28.1 µM (inactive) | 28.8 µM (inactive) | 29.7 µM (inactive) | 26.7 µM (inactive) |
| Cn1c(N)[n+](C(=O)OCc2ccccc2)c(=O)c2c1ncn2C(=O)OCc1ccccc1 | > 100 µM (inactive) | 95.1 µM (inactive) | > 100 µM (inactive) |  | > 100 µM (inactive) | 41.5 µM (inactive) |  | > 100 µM (inactive) | 99.8 µM (inactive) |
| CCOC(=O)c1c(NNc2ccccc2)nc2ccccc2c1-c1ccccc1 | 35.5 µM (inactive) | 25.9 µM (inactive) | 19 µM (inactive) |  | 24.3 µM (inactive) | 27 µM (inactive) |  | 43.2 µM (inactive) | 17.1 µM (inactive) |
| CCCCCCCCCCCCCCCCSS(C)(=O)=O | 37.6 µM (inactive) | 11.6 µM (inactive) | 8.75 µM (inactive) | 16.3 µM (inactive) |  |  | 6.1 µM (inactive) | 27 µM (inactive) |  |
| CCO/C([O-])=C(\C(=O)c1ccccc1)[n+]1c(C)sc2ccccc21 | > 100 µM (inactive) | > 100 µM (inactive) | 54.1 µM (inactive) |  | 18.4 µM (inactive) | > 100 µM (inactive) |  | > 100 µM (inactive) | 32.3 µM (inactive) |

— ChEMBL document CHEMBL1201862, “PubChem BioAssay data set” (2004)
